HELM strings list units from the 5' end as sugar, base in round brackets, then linkage (d deoxyribose, r ribose, m 2'-O-methyl, p phosphodiester). Strings are as the collection lists them, not checked against the first reports. ss, as = sense and antisense strand; [lna] = locked nucleic acid (LNA); [hna] = hexitol nucleic acid; [fl2r] = 2'-fluoro
Conditions: siRNA
Also: test system not given here.

Substance	target mRNA knockdown [%]
RNA1{m(G)p.r(A)p.m(A)p.r(G)p.m(A)p.r(G)p.m(C)p.r(C)p.m(U)p.r(A)p.m(C)p.r(A)p.m(C)p.r(A)p.m(A)p.r(C)p.m(C)p.r(C)p.m(U)p.r(T)p.r(T)}|RNA2{r(A)p.m(G)p.m(G)p.m(G)p.r(U)p.r(U)p.m(G)p.r(U)p.m(G)p.r(U)p.r(A)p.m(G)p.m(G)p.r(C)p.r(U)p.r(C)p.r(U)p.r(U)p.r(C)p.r(T)p.r(T)}$$$RNA1{StrandType:ss}|RNA2{StrandType:as}$	43
RNA1{r(G)p.r(A)p.r(C)p.r(G)p.r(U)p.r(A)p.r(A)p.r(A)p.r(C)p.r(G)p.r(G)p.r(C)p.r(C)p.r(A)p.r(C)p.r(A)p.r(A)p.r(G)p.[hna](U)p.[hna](U)p.r(C)}|RNA2{r(A)p.r(C)p.r(U)p.r(U)p.r(G)p.r(U)p.r(G)p.r(G)p.r(C)p.r(C)p.r(G)p.r(U)p.r(U)p.r(U)p.r(A)p.r(C)p.r(G)p.r(U)p.[lna](C)p.[lna](G)p.r(C)}$$$RNA1{StrandType:ss}|RNA2{StrandType:as}$	83.8
RNA1{r(G)p.r(G)p.r(A)p.r(G)p.r(C)p.r(A)p.r(C)p.r(G)p.r(C)p.r(U)p.m(U)p.r(A)p.r(C)p.m(U)p.r(A)p.r(C)p.r(C)p.r(U)p.r(U)p.r(T)p.r(T)}|RNA2{r(A)p.r(A)p.r(G)p.r(G)p.m(U)p.r(A)p.r(G)p.m(U)p.r(A)p.r(A)p.r(G)p.r(C)p.r(G)p.r(U)p.r(G)p.r(C)p.r(U)p.r(C)p.r(C)p.r(T)p.r(T)}$$$RNA1{StrandType:ss}|RNA2{StrandType:as}$	69
RNA1{m(A)p.r(G)p.m(C)p.r(G)p.m(G)p.r(G)p.m(G)p.r(U)p.m(A)p.r(U)p.m(G)p.r(A)p.m(A)p.r(G)p.m(A)p.r(G)p.m(C)p.r(U)p.m(U)p.r(T)p.r(T)}|RNA2{r(A)p.r(A)p.r(G)p.r(C)p.r(U)p.r(C)p.r(U)p.r(U)p.r(C)p.r(A)p.r(U)p.r(A)p.r(C)p.r(C)p.r(C)p.r(C)p.r(G)p.r(C)p.r(U)p.r(T)p.r(T)}$$$RNA1{StrandType:ss}|RNA2{StrandType:as}$	75
RNA1{r(U)p.m(U)p.m(A)p.r(A)p.r(A)p.r(G)p.m(G)p.r(G)p.r(C)p.r(G)p.r(A)p.r(G)p.r(A)p.r(A)p.r(G)p.r(A)p.r(C)p.r(C)p.r(G)p.r(T)p.r(T)}|RNA2{r(C)p.r(G)p.r(G)p.r(U)p.r(C)p.r(U)p.r(U)p.r(C)p.r(U)p.r(C)p.r(G)p.r(C)p.r(C)p.r(C)p.r(U)p.r(U)p.m(U)p.r(A)p.r(A)p.r(T)p.r(T)}$$$RNA1{StrandType:ss}|RNA2{StrandType:as}$	85
RNA1{r(A)p.r(C)p.r(C)p.r(U)p.m(U)p.r(A)p.r(A)p.r(G)p.r(G)p.r(A)p.r(C)p.r(C)p.r(A)p.r(C)p.r(C)p.r(G)p.r(G)p.r(A)p.r(U)p.r(T)p.r(T)}|RNA2{r(A)p.r(U)p.r(C)p.r(C)p.r(G)p.r(G)p.r(U)p.r(G)p.r(G)p.r(U)p.r(C)p.r(C)p.r(U)p.m(U)p.r(A)p.r(A)p.r(G)p.r(G)p.r(U)p.r(T)p.r(T)}$$$RNA1{StrandType:ss}|RNA2{StrandType:as}$	74
RNA1{r(C)p.r(U)p.r(U)p.r(A)p.r(C)p.r(G)p.r(C)p.r(U)p.r(G)p.r(A)p.r(G)p.r(U)p.r(A)p.r(C)p.r(U)p.r(U)p.r(C)p.r(G)p.r(A)p.d(T)p.d(T)}|RNA2{[lna](T)p.r(C)p.r(G)p.r(A)p.r(A)p.r(G)p.r(U)p.r(A)p.r(C)p.r(U)p.r(C)p.r(A)p.r(G)p.r(C)p.r(G)p.r(U)p.r(A)p.r(A)p.r(G)p.[lna](T)p.[lna](T)}$$$RNA1{StrandType:ss}|RNA2{StrandType:as}$	55
RNA1{r(A)p.r(A)p.r(G)p.r(G)p.r(C)p.r(C)p.r(A)p.r(A)p.r(C)p.r(C)p.r(G)p.r(A)p.[fl2r](U)p.r(A)p.r(C)p.r(U)p.r(U)p.r(C)p.r(U)p.r(T)p.r(T)}|RNA2{r(A)p.r(G)p.r(A)p.r(A)p.r(G)p.[fl2r](U)p.r(A)p.r(U)p.r(C)p.r(G)p.r(G)p.r(U)p.r(U)p.r(G)p.r(G)p.r(C)p.r(C)p.r(U)p.r(U)p.r(T)p.r(T)}$$$RNA1{StrandType:ss}|RNA2{StrandType:as}$	69
RNA1{m(G)p.r(G)p.m(A)p.r(G)p.m(C)p.r(U)p.m(A)p.r(G)p.m(A)p.r(C)p.m(G)p.r(G)p.m(G)p.r(U)p.m(A)p.r(C)p.m(G)p.r(A)p.r(G)p.r(T)p.r(T)}|RNA2{r(C)p.r(U)p.r(C)p.r(G)p.r(U)p.r(A)p.r(C)p.r(C)p.r(C)p.r(G)p.r(U)p.r(C)p.r(U)p.r(A)p.r(G)p.r(C)p.r(U)p.r(C)p.r(C)p.r(T)p.r(T)}$$$RNA1{StrandType:ss}|RNA2{StrandType:as}$	75
RNA1{r(G)p.r(U)p.r(C)p.m(U)p.r(A)p.m(U)p.r(G)p.r(C)p.m(C)p.r(A)p.r(A)p.r(G)p.r(A)p.r(A)p.r(G)p.r(G)p.r(G)p.r(A)p.r(G)p.r(T)p.r(T)}|RNA2{r(C)p.r(U)p.r(C)p.r(C)p.r(C)p.r(U)p.r(U)p.r(C)p.r(U)p.m(U)p.r(G)p.r(G)p.m(C)p.r(A)p.m(U)p.r(A)p.r(G)p.r(A)p.r(C)p.r(T)p.r(T)}$$$RNA1{StrandType:ss}|RNA2{StrandType:as}$	72
RNA1{m(G)p.r(U)p.m(A)p.r(U)p.m(C)p.r(C)p.m(G)p.r(A)p.m(A)p.r(G)p.m(A)p.r(C)p.m(G)p.r(A)p.m(A)p.r(G)p.m(C)p.r(U)p.m(A)p.r(T)p.r(T)}|RNA2{r(U)p.m(A)p.r(G)p.r(C)p.r(U)p.r(U)p.r(C)p.r(G)p.r(U)p.r(C)p.r(U)p.r(U)p.r(C)p.r(G)p.r(G)p.m(A)p.r(U)p.m(A)p.r(C)p.r(T)p.r(T)}$$$RNA1{StrandType:ss}|RNA2{StrandType:as}$	30
RNA1{r(C)p.r(U)p.r(U)p.r(A)p.r(C)p.r(G)p.r(C)p.r(U)p.r(G)p.r(A)p.r(G)p.r(U)p.r(A)p.r(C)p.r(U)p.r(U)p.r(C)p.r(G)p.r(A)p.d(T)p.d(T)}|RNA2{r(U)p.r(C)p.r(G)p.r(A)p.r(A)p.r(G)p.r(U)p.r(A)p.r(C)p.r(U)p.r(C)p.r(A)p.r(G)p.r(C)p.r(G)p.r(U)p.r(A)p.r(A)p.r(G)p.[lna](T)p.[lna](T)}$$$RNA1{StrandType:ss}|RNA2{StrandType:as}$	92
RNA1{r(C)p.r(C)p.r(U)p.r(C)p.r(C)p.r(C)p.r(C)p.r(A)p.r(U)p.r(C)p.r(C)p.r(C)p.r(C)p.r(U)p.r(U)p.r(U)p.r(U)p.r(A)p.r(A)p.r(T)p.r(T)}|RNA2{r(U)p.r(U)p.m(A)p.r(A)p.r(A)p.r(A)p.r(G)p.r(G)p.r(G)p.r(G)p.r(A)p.r(U)p.r(G)p.r(G)p.r(G)p.r(G)p.r(A)p.r(G)p.r(G)p.r(T)p.r(T)}$$$RNA1{StrandType:ss}|RNA2{StrandType:as}$	80
RNA1{r(G)p.r(A)p.r(A)p.r(G)p.r(A)p.r(G)p.r(C)p.r(C)p.m(U)p.r(A)p.m(C)p.r(A)p.m(C)p.r(A)p.r(A)p.r(C)p.r(C)p.r(C)p.r(U)p.r(T)p.r(T)}|RNA2{r(A)p.r(G)p.r(G)p.r(G)p.r(U)p.m(U)p.r(G)p.m(U)p.r(G)p.m(U)p.r(A)p.r(G)p.r(G)p.r(C)p.r(U)p.r(C)p.r(U)p.r(U)p.r(C)p.r(T)p.r(T)}$$$RNA1{StrandType:ss}|RNA2{StrandType:as}$	75
RNA1{r(G)p.r(A)p.r(C)p.r(G)p.r(U)p.r(A)p.r(A)p.r(A)p.r(C)p.r(G)p.r(G)p.r(C)p.r(C)p.r(A)p.r(C)p.r(A)p.r(A)p.r(G)p.[hna](U)p.[hna](U)p.r(C)}|RNA2{r(A)p.m(C)p.r(U)p.r(U)p.r(G)p.r(U)p.r(G)p.r(G)p.r(C)p.r(C)p.r(G)p.r(U)p.r(U)p.r(U)p.r(A)p.r(C)p.r(G)p.r(U)p.r(C)p.r(G)p.r(C)}$$$RNA1{StrandType:ss}|RNA2{StrandType:as}$	57
RNA1{r(A)p.r(U)p.r(C)p.r(U)p.r(G)p.r(A)p.r(A)p.r(G)p.r(A)p.r(A)p.r(G)p.r(G)p.r(A)p.r(G)p.r(A)p.r(A)p.r(A)p.r(A)p.r(A)p.d(T)p.d(T)}|RNA2{[lna](T)p.r(U)p.r(U)p.r(U)p.r(U)p.r(C)p.r(U)p.r(C)p.r(C)p.r(U)p.r(U)p.r(C)p.r(U)p.r(U)p.r(C)p.r(A)p.r(G)p.r(A)p.r(U)p.[lna](T)p.[lna](T)}$$$RNA1{StrandType:ss}|RNA2{StrandType:as}$	45
RNA1{r(C)p.r(C)p.r(U)p.r(C)p.r(G)p.r(G)p.r(A)p.r(G)p.r(A)p.r(G)p.r(U)p.r(U)p.r(C)p.m(U)p.r(A)p.r(C)p.r(U)p.r(C)p.r(U)p.r(T)p.r(T)}|RNA2{r(A)p.r(G)p.r(A)p.r(G)p.m(U)p.r(A)p.r(G)p.r(A)p.r(A)p.r(C)p.r(U)p.r(C)p.r(U)p.r(C)p.r(C)p.r(G)p.r(A)p.r(G)p.r(G)p.r(T)p.r(T)}$$$RNA1{StrandType:ss}|RNA2{StrandType:as}$	85
RNA1{r(A)p.r(A)p.r(G)p.r(G)p.r(A)p.r(A)p.r(C)p.r(G)p.r(G)p.r(G)p.r(G)p.r(A)p.r(C)p.r(A)p.r(C)p.r(U)p.r(U)p.r(A)p.r(C)p.r(T)p.r(T)}|RNA2{r(G)p.m(U)p.r(A)p.r(A)p.r(G)p.r(U)p.r(G)p.r(U)p.r(C)p.r(C)p.r(C)p.r(C)p.r(G)p.r(U)p.r(U)p.r(C)p.r(C)p.r(U)p.r(U)p.r(T)p.r(T)}$$$RNA1{StrandType:ss}|RNA2{StrandType:as}$	38
RNA1{m(A)p.r(G)p.m(A)p.r(A)p.m(A)p.r(C)p.m(G)p.r(C)p.m(A)p.r(G)p.m(U)p.r(A)p.m(A)p.r(U)p.m(C)p.r(C)p.m(G)p.r(G)p.m(A)p.r(T)p.r(T)}|RNA2{r(U)p.r(C)p.r(C)p.m(G)p.m(G)p.r(A)p.r(U)p.r(U)p.r(A)p.r(C)p.r(U)p.m(G)p.r(C)p.m(G)p.r(U)p.r(U)p.r(U)p.r(C)p.r(U)p.r(T)p.r(T)}$$$RNA1{StrandType:ss}|RNA2{StrandType:as}$	36
RNA1{m(U)p.r(A)p.r(A)p.r(A)p.r(C)p.r(U)p.r(U)p.m(U)p.r(G)p.r(G)p.r(G)p.r(G)p.r(A)p.r(A)p.r(G)p.r(G)p.r(G)p.r(A)p.r(G)p.r(T)p.r(T)}|RNA2{r(C)p.r(U)p.r(C)p.r(C)p.r(C)p.r(U)p.r(U)p.r(C)p.r(C)p.r(C)p.m(C)p.r(A)p.r(A)p.r(A)p.r(G)p.r(U)p.r(U)p.m(U)p.r(A)p.r(T)p.r(T)}$$$RNA1{StrandType:ss}|RNA2{StrandType:as}$	67
RNA1{r(A)p.r(A)p.r(A)p.r(C)p.r(G)p.r(A)p.r(G)p.r(A)p.r(G)p.r(A)p.r(G)p.r(C)p.r(C)p.r(C)p.r(A)p.r(C)p.r(C)p.r(U)p.r(U)p.r(T)p.r(T)}|RNA2{r(A)p.r(A)p.r(G)p.r(G)p.m(U)p.r(G)p.r(G)p.r(G)p.r(C)p.r(U)p.r(C)p.r(U)p.r(C)p.r(U)p.r(C)p.r(G)p.r(U)p.r(U)p.r(U)p.r(T)p.r(T)}$$$RNA1{StrandType:ss}|RNA2{StrandType:as}$	57

— the OligoGym collection
